From patent US12281122B1, “PI3K inhibitors” (Cogent Biosciences, Inc., priority 2023, dated 2025)

How the values were obtained:
[1] = system: SKBR3 (PI3Kα-Wild Type) cell line; experiment: HTRF phospho-AKT(S473) cell assay in SKBR3 cells; format: cell-based, human; settings: Homo sapiens, SK-BR-3; HTRF phospho-AKT(S473), SKBR3 (PI3Kα-Wild Type) cells, 2 hours compound incubation, PDGF-BB stimulated
Procedure, shortened: (§1)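 Cells plated overnight (T47D in RPMI/10% FBS/0.2 units/mL insulin; SKBR3 in McCoy's 5A/10% FBS), then given 12-point 1:3 compound series (top 5 μM T47D, 10 μM SKBR3; ≤0.5% DMSO) for 2 h at 37° C. SKBR3 stimulated with 70 ng/ml PDGF-BB for final 15 min. Lysate pAKT(S473) by HTRF; IC50 calculated.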

[2] = system: T47D (PI3Kα-H1047R) cell line; experiment: HTRF phospho-AKT(S473) cell assay in T47D cells; format: cell-based, human; settings: Homo sapiens; HTRF phospho-AKT(S473), T47D (PI3Kα-H1047R) cells, 2 hours compound incubation
Procedure, shortened: as §1

IC50 [1] [nM] | IC50 [2] [nM] | Compound
≥ 5000 | < 250 | Cc1cc([C@@H](C)Nc2ccc(Cl)nc2C(=O)NS(C)(=O)=O)c2nc(N3CCN(c4nc(C(F)F)ncc4F)CC3)n(C)c(=O)c2c1 [Compound 772, (R)-6-chloro-3-((1-(2-(4-(2-(difluoromethyl)-5-fluoropyrimidin-4-yl)piperazin-1-yl)-3,6-dimethyl-4-oxo-3,4-dihydroquinazolin-8-yl)ethyl)amino)-N-(methylsulfonyl) picolinamide]
1000 to 5000 | < 250 | Cc1cc([C@@H](C)Nc2ccc(Cl)nc2C(=O)NS(C)(=O)=O)c2nc(-c3ccc(C4(C#N)CC4)cc3)n(C)c(=O)c2c1 [Compound 773, (R)-6-chloro-3-((1-(2-(4-(1-cyanocyclopropyl)phenyl)-3,6-dimethyl-4-oxo-3,4-dihydroquinazolin-8-yl)ethyl)amino)-N-(methylsulfonyl) picolinamide]
500 to 1000 | < 250 | Cc1cc([C@@H](C)Nc2ccc(Cl)nc2C(=O)NS(C)(=O)=O)c2nc(-c3ccc4c(cnn4C)c3)n(C)c(=O)c2c1 [Compound 774, (R)-6-chloro-3-((1-(3,6-dimethyl-2-(1-methyl-1H-indazol-5-yl)-4-oxo-3,4-dihydroquinazolin-8-yl)ethyl)amino)-N-(methylsulfonyl) picolinamide]
1000 to 5000 | 250 to 500 | Cc1cc([C@@H](C)Nc2ccc(Cl)nc2C(=O)NS(C)(=O)=O)c2nc(-c3ccc4c(c3)C(=O)N(C)C4)n(C)c(=O)c2c1 [Compound 776, (R)-6-chloro-3-((1-(3,6-dimethyl-2-(2-methyl-3-oxoisoindolin-5-yl)-4-oxo-3,4-dihydroquinazolin-8-yl)ethyl)amino)-N-(methylsulfonyl) picolinamide]
≥ 5000 | 500 to 1000 | Cc1cc([C@@H](C)Nc2ccc(Cl)nc2C(=O)NS(C)(=O)=O)c2nc(-c3cccc(Cl)c3Cl)n(C)c(=O)c2c1 [Compound 777, (R)-6-chloro-3-((1-(2-(2,3-dichlorophenyl)-3,6-dimethyl-4-oxo-3,4-dihydroquinazolin-8-yl)ethyl)amino)-N-(methylsulfonyl) picolinamide]
1000 to 5000 | < 250 | CC(=O)N1CCN(c2ccc(-c3nc4c([C@@H](C)Nc5ccc(Cl)nc5C(=O)NS(C)(=O)=O)cc(C)cc4c(=O)n3C)cc2F)CC1 [Compound 778, (R)-3-((1-(2-(4-(4-acetylpiperazin-1-yl)-3-fluorophenyl)-3,6-dimethyl-4-oxo-3,4-dihydroquinazolin-8-yl)ethyl)amino)-6-chloro-N-(methylsulfonyl) picolinamide]
1000 to 5000 | < 250 | Cc1cc([C@@H](C)Nc2ccc(Cl)nc2C(=O)NS(C)(=O)=O)c2nc(-c3ccc4c(c3)C(=O)N(C)CC4)n(C)c(=O)c2c1 [Compound 779, (R)-6-chloro-3-((1-(3,6-dimethyl-2-(2-methyl-1-oxo-1,2,3,4-tetrahydroisoquinolin-7-yl)-4-oxo-3,4-dihydroquinazolin-8-yl)ethyl)amino)-N-(methylsulfonyl) picolinamide]
1000 to 5000 | < 250 | CC(=O)N1CCC(c2ccc(-c3nc4c([C@@H](C)Nc5ccc(Cl)nc5C(=O)NS(C)(=O)=O)cc(C)cc4c(=O)n3C)c(F)c2)CC1 [Compound 780, (R)-3-((1-(2-(4-(1-acetylpiperidin-4-yl)-2-fluorophenyl)-3,6-dimethyl-4-oxo-3,4-dihydroquinazolin-8-yl)ethyl)amino)-6-chloro-N-(methylsulfonyl) picolinamide]
1000 to 5000 | < 250 | Cc1cc([C@@H](C)Nc2ccc(Cl)nc2C(=O)NS(C)(=O)=O)c2nc(-c3ccc4nn(C)nc4c3)n(C)c(=O)c2c1 [Compound 781, (R)-6-chloro-3-((1-(3,6-dimethyl-2-(2-methyl-2H-benzo[d][1,2,3]triazol-5-yl)-4-oxo-3,4-dihydroquinazolin-8-yl)ethyl)amino)-N-(methylsulfonyl) picolinamide]
1000 to 5000 | < 250 | CC(=O)N1CCC(c2ccc(-c3nc4c([C@@H](C)Nc5ccc(Cl)nc5C(=O)NS(C)(=O)=O)cc(C)cc4c(=O)n3C)cc2)CC1 [Compound 782, (R)-3-((1-(2-(4-(1-acetylpiperidin-4-yl)phenyl)-3,6-dimethyl-4-oxo-3,4-dihydroquinazolin-8-yl)ethyl)amino)-6-chloro-N-(methylsulfonyl) picolinamide]
1000 to 5000 | < 250 | Cc1cc([C@@H](C)Nc2ccc(Cl)nc2C(=O)NS(C)(=O)=O)c2nc(-c3cc(F)c4nn(C)cc4c3)n(C)c(=O)c2c1 [Compound 788, (R)-6-chloro-3-((1-(2-(7-fluoro-2-methyl-2H-indazol-5-yl)-3,6-dimethyl-4-oxo-3,4-dihydroquinazolin-8-yl)ethyl)amino)-N-(methylsulfonyl) picolinamide]
1000 to 5000 | < 250 | COCCn1ncc2cc(-c3nc4c([C@@H](C)Nc5ccc(Cl)nc5C(=O)NS(C)(=O)=O)cc(C)cc4c(=O)n3C)ccc21 [Compound 791, (R)-6-chloro-3-((1-(2-(1-(2-methoxyethyl)-1H-indazol-5-yl)-3,6-dimethyl-4-oxo-3,4-dihydroquinazolin-8-yl)ethyl)amino)-N-(methylsulfonyl) picolinamide]

The remaining lines, values behind:

Compound | IC50 [1] [nM] | IC50 [2] [nM]
Cc1cc([C@@H](C)Nc2ccc(Cl)nc2C(=O)NS(C)(=O)=O)c2nc(N3C[C@H]4C[C@@H]3CN4c3ncc(C#N)cc3F)n(C)c(=O)c2c1 [Compound 767, 6-chloro-3-(((R)-1-(2-((1R,4R)-5-(5-cyano-3-fluoropyridin-2-yl)-2,5-diazabicyclo [2.2.1]heptan-2-yl)-3,6-dimethyl-4-oxo-3,4-dihydroquinazolin-8-yl)ethyl)amino)-N-(methylsulfonyl) picolinamide] | ≥ 5000 | 250 to 500
Cc1cc([C@@H](C)Nc2ccc(Cl)nc2C(=O)NS(C)(=O)=O)c2nc(-c3ccc4nn(C)cc4c3)n(C)c(=O)c2c1 [Compound 775, (R)-6-chloro-3-((1-(3,6-dimethyl-2-(2-methyl-2H-indazol-5-yl)-4-oxo-3,4-dihydroquinazolin-8-yl)ethyl)amino)-N-(methylsulfonyl) picolinamide] | 1000 to 5000 | < 250
Cc1cc([C@@H](C)Nc2ccc(Cl)nc2C(=O)NS(C)(=O)=O)c2nc(-c3ccc4c(cnn4CC(F)(F)F)c3)n(C)c(=O)c2c1 [Compound 783, (R)-6-chloro-3-((1-(3,6-dimethyl-4-oxo-2-(1-(2,2,2-trifluoroethyl)-1H-indazol-5-yl)-3,4-dihydroquinazolin-8-yl)ethyl)amino)-N-(methylsulfonyl) picolinamide] | 1000 to 5000 | < 250
Cc1cc([C@@H](C)Nc2ccc(Cl)nc2C(=O)NS(C)(=O)=O)c2nc(-c3ccc4nn(CC(F)(F)F)cc4c3)n(C)c(=O)c2c1 [Compound 784, (R)-6-chloro-3-((1-(3,6-dimethyl-4-oxo-2-(2-(2,2,2-trifluoroethyl)-2H-indazol-5-yl)-3,4-dihydroquinazolin-8-yl)ethyl)amino)-N-(methylsulfonyl) picolinamide] | 1000 to 5000 | < 250
CC(=O)N1CCN(c2ccc(-c3nc4c([C@@H](C)Nc5ccc(Cl)nc5C(=O)NS(C)(=O)=O)cc(C)cc4c(=O)n3C)c(F)c2)CC1 [Compound 785, (R)-3-((1-(2-(4-(4-acetylpiperazin-1-yl)-2-fluorophenyl)-3,6-dimethyl-4-oxo-3,4-dihydroquinazolin-8-yl)ethyl)amino)-6-chloro-N-(methylsulfonyl) picolinamide] | 1000 to 5000 | < 250
CC(=O)N1CCC(c2ccc(-c3nc4c([C@@H](C)Nc5ccc(Cl)nc5C(=O)NS(C)(=O)=O)cc(C)cc4c(=O)n3C)cc2F)CC1 [Compound 786, (R)-3-((1-(2-(4-(1-acetylpiperidin-4-yl)-3-fluorophenyl)-3,6-dimethyl-4-oxo-3,4-dihydroquinazolin-8-yl)ethyl)amino)-6-chloro-N-(methylsulfonyl) picolinamide] | 1000 to 5000 | < 250
Cc1cc([C@@H](C)Nc2ccc(Cl)nc2C(=O)NS(C)(=O)=O)c2nc(-c3ccc(-c4ccn(C)n4)c(F)c3)n(C)c(=O)c2c1 [Compound 787, (R)-6-chloro-3-((1-(2-(3-fluoro-4-(1-methyl-1H-pyrazol-3-yl)phenyl)-3,6-dimethyl-4-oxo-3,4-dihydroquinazolin-8-yl)ethyl)amino)-N-(methylsulfonyl) picolinamide] | 1000 to 5000 | < 250
Cc1cc([C@@H](C)Nc2ccc(Cl)nc2C(=O)NS(C)(=O)=O)c2nc(-c3ccc4nc(C)oc4c3)n(C)c(=O)c2c1 [Compound 789, (R)-6-chloro-3-((1-(3,6-dimethyl-2-(2-methylbenzo[d]oxazol-6-yl)-4-oxo-3,4-dihydroquinazolin-8-yl)ethyl)amino)-N-(methylsulfonyl) picolinamide] | 1000 to 5000 | < 250
Cc1cc([C@@H](C)Nc2ccc(Cl)nc2C(=O)NS(C)(=O)=O)c2nc(-c3ccc(N4CCN(C)CC4)cc3)n(C)c(=O)c2c1 [Compound 790, (R)-6-chloro-3-((1-(3,6-dimethyl-2-(4-(4-methylpiperazin-1-yl)phenyl)-4-oxo-3,4-dihydroquinazolin-8-yl)ethyl)amino)-N-(methylsulfonyl) picolinamide] | ≥ 5000 | < 250
Cc1cc([C@@H](C)Nc2ccc(Cl)nc2C(=O)NS(C)(=O)=O)c2nc(-c3ccc4nn(C5COC5)cc4c3)n(C)c(=O)c2c1 [Compound 792, (R)-6-chloro-3-((1-(3,6-dimethyl-2-(2-(oxetan-3-yl)-2H-indazol-5-yl)-4-oxo-3,4-dihydroquinazolin-8-yl)ethyl)amino)-N-(methylsulfonyl) picolinamide] | 1000 to 5000 | < 250
